Experimental data as given in patent US8546582B2, “Sulfenamide, vulcanization accelerator containing the sulfenamide for rubber, and process for producing the vulcanization accelerator” (Ouchi Shinko Chemical Industrial Co., Ltd., priority 2007, dated 2013).
“And” between values parts separate entries of the source, which are not always exact repeats. Equal values may be shown once. Blank lines part the entries; values can stand above or below the compound they belong to.

Columns and labels:
[1] = 1-octanol/water distribution coefficient by high-performance liquid chromatography (JIS Z7260-117); format: physicochemical; settings: HPLC
Description: For N-methyl-N-t-butylbenzothiazole-2-sulfenamide (BMBS) synthesized in Example 1, N-ethyl-N-t-butylbenzothiazole-2-sulfenamide (BEBS) synthesized in Example 2, N-n-propyl-N-t-butylbenzothiazole-2-sulfenamide (BPBS) synthesized in Example 3, N-n-butyl-N-t-butylbenzothiazole-2-sulfenamide (BBBS) synthesized in Example 4, and N,N-dicyclohexylbenzothiazole-2-sulfenamide (DCBS) which is a conventional compound, the 1-octanol/water distribution coefficient was measured by high-performance liquid chromatography according to JIS Z7260-117.

fish and shellfish = settings: Official Bulletin of Economy, Trade and Industry, Dec. 22, 2005; cited from earlier work
microorganisms = settings: safety checks of existing chemical substances; cited from earlier work
[2] = stated in TRGS552 (non-patent document 3); cited from earlier work
carp = test: test on the degree of bioconcentration of a chemical substance in the body of fish and shellfish; format: in vivo; settings: for Concentration ratio (times), average / Concentration ratio (times): carp; for Concentration ratio (times): single values
Description: For BEBS synthesized in Example 2, a test on the degree of bioconcentration of a chemical substance in the body of fish and shellfish was carried out according to “Shinki Kagaku Busshitsu To Nikakaru Shiken No Hoho Nitsuite (Circular on Test Methods of New Chemical Substances)” (Yakushokuhatsu No. 1121002 dated Nov. 21, 2003, Seikyoku No. 2 dated on Nov. 13, 2003, Kanhokihatsu No. 03121002).
Test bioconcentration: First bioconcentration area 1 μg/L • Second bioconcentration area 0.1 μg/L
Exposure duration: 22 days
Exposure method: Continuous flow-through
Analytical method: High-performance liquid chromatography

[3] = first concentration area 1 μg/L, after 14 days
[4] = first concentration area 1 μg/L, after 22 days
[5] = second concentration area 0.1 μg/L, after 14 days
[6] = second concentration area 0.1 μg/L, after 22 days

- melting point: 55 to 56 °C
SMILES: CCCN(Sc1nc2ccccc2s1)C(C)(C)C [BPBS, N-n-propyl-N-t-butylbenzothiazole-2-sulfenamide]

SMILES: CN(Sc1nc2ccccc2s1)C(C)(C)C [BMBS, N-methyl-N-t-butyl benzothiazole-2-sulfenamide]
- logPow [1]: 4.5

SMILES: c1ccc2sc(SN(C3CCCCC3)C3CCCCC3)nc2c1 [DCBS, N,N-dicyclohexylbenzothiazole-2-sulfenamide]
- concentration ratio (BCFSS) (fish and shellfish): 6000 times
- degradability (microorganisms): hardly degradable
- chromatographic logP ([1]; read-out: logPow): 7.4

SMILES: CCCCN(N=O)C(C)(C)C [N-nitroso-N-n-butyl-t-butylamine]
- carcinogenicity [2]: not carcinogenic

SMILES: CCN(Sc1nc2ccccc2s1)C(C)(C)C [BEBS, N-ethyl-N-t-butylbenzothiazole-2-sulfenamide]
- Concentration ratio (times), average (carp; [3]): 180 times
- Concentration ratio (times) (carp; [3]): 120 times and 240 times
- Concentration ratio (times), average (carp; [4]): 170 times
- Concentration ratio (times) (carp; [4]): 180 times and 170 times
- Concentration ratio (times), average (carp; [5]): 180 times
- Concentration ratio (times) (carp; [5]): 180 times and 190 times
- Concentration ratio (times), average (carp; [6]): 160 times
- Concentration ratio (times) (carp; [6]): 180 times and 130 times
- bioaccumulation or bioconcentration (carp; preliminary test, in 22 days): 180 times

SMILES: CCN(N=O)C(C)(C)C [N-nitroso-N-ethyl-t-butylamine]
- carcinogenicity [2]: not carcinogenic

- melting point: 55 to 56 °C
SMILES: CCCCN(Sc1nc2ccccc2s1)C(C)(C)C [BBBS, N-n-butyl-N-t-butylbenzothiazole-2-sulfenamide]

SMILES: O=NN(C1CCCCC1)C1CCCCC1 [N-nitrosodicyclohexylamine]
- carcinogenicity [2]: not carcinogenic

SMILES: CN(N=O)C(C)(C)C [N-nitroso-N-methyl-t-butylamine]
- carcinogenicity [2]: not carcinogenic
